From patent publication US20240122956A1, “Application of Naringin Combined with Rapamycin in Preparation of Medications for Treating Hyperlipidemia” (AIR FORCE MEDICAL UNIVERSITY, priority 2023, published 2024)

Columns and labels:
THP-1 cells [1] = assay: IL-1β release in THP-1 cells; assay type: cell-based; conditions: naringin 100 μM pre-treatment 1 hour
Procedure: (§1) Cell Culture and Treatment: THP-1 cells (from American Type Culture Collection, Manassas, Virginia) were cultured in RPMI 1640. They were pre-treated with naringin (Sigma, 91842; 100 μM) for 1 hour, followed by cultivation in serum-free medium containing oxLDL and oxHDL (50 μg/mL) for 3 hours. The culture condition was maintained at 37° C. and with 5% CO2.
Measurement of IL-1β: IL-1β was measured using a commercially available IL-1β assay kit according to the manufacturer's instructions.

[2] = system: oxidized high-density lipoprotein (oxHDL); assay: drug screening among 200 natural products for neutralizing oxLp: affinity and surface charge, oxHDL; assay type: binding
Text: (§2) This unregulated process of lipid accumulation and inflammatory reaction, induced by oxLp-NLRP3 complexes, accelerates the progression of hyperlipidemia. Considering the role of oxLp-NLRP3 complexes in the progression of hyperlipidemia, a drug screening technique was employed to search for potential compounds among 200 natural products with the aim of neutralizing oxLp. […] Therefore, naringin was selected for further investigation.

THP-1 cells [3] = assay: intracellular cholesterol accumulation in THP-1 cells; assay type: cell-based; conditions: naringin 100 μM pre-treatment 1 hour
Procedure: as §1
Measurement of Intracellular Cholesterol: Intracellular cholesterol was determined using a commercially available intracellular cholesterol assay kit according to the manufacturer's instructions.

[4] = system: oxidized low-density lipoprotein (oxLDL); assay: drug screening among 200 natural products for neutralizing oxLp: affinity and surface charge, oxLDL; assay type: binding
Text: as §2

oxLDL-NLRP3 complexes = assay: formation of oxLDL-NLRP3 complexes in THP-1 cells (fluorescence imaging); assay type: cell-based; conditions: naringin 100 μM pre-treatment 1 hour, oxLDL 50 μg/mL 3 hours
Procedure: as §1

[5] = system: hyperlipidemia model Ldr1−/− (C57BL/6J) mice; assay: lipid accumulation / lesions in carotid arteries, aortic roots and liver of hyperlipidemic mice (Oil Red O); assay type: in vivo; conditions: high-fat diet 16 weeks, naringin 20 mg/kg daily intraperitoneal, RAPA 40 mg/kg in diet
Text: To evaluate the synergistic therapeutic effects of naringin and rapamycin on hyperlipidemia mice (FIG. 4), a hyperlipidemia model was established using Ldr1^−/− (C57BL/6J) mice. […] Subsequently, mouse serum, tissues of carotid arteries, liver, and aortic root were collected for analysis. Assessment of Lesions in Carotid Arteries, Aortic Roots, and Liver Tissues: Carotid arteries, hearts, and livers of mice were dissected, fixed overnight with 4% PFA, and carotid arteries were stained with Oil Red O after gently removing adherent (outer membrane) fat and flattening them from the carotid arteries. The stained aortas were placed on anti-fall-off slides, fully unfolded, and images were captured using a high-resolution camera. Hearts and livers were embedded in OCT tissue, and 7-10 μm thick continuous sections were collected. Staining was performed with Oil Red O and hematoxylin and eosin. Stained sections were analyzed using an optical microscope. ImageJ (version 2.10) was used for quantitative analysis of the images. Lesion areas were assessed according to the percentage of Oil Red 0-positive areas in the total sampled area.

oxHDL-NLRP3 complexes = assay: formation of oxHDL-NLRP3 complexes in THP-1 cells (fluorescence imaging); assay type: cell-based; conditions: naringin 100 μM pre-treatment 1 hour, oxHDL 50 μg/mL 3 hours
Procedure: as §1

In the case of `C[C@@H]1O[C@@H](O[C@H]2[C@H](Oc3cc(O)c4c(c3)O[C@H](c3ccc(O)cc3)CC4=O)O[C@H](CO)[C@@H](O)[C@@H]2O)[C@H](O)[C@H](O)[C@H]1O` [naringin], the “oxHDL-induced IL-1β release” value (THP-1 cells [1]; oxHDL 50 μg/mL 3 hours) is reported as “reduced”, the “oxLDL-induced IL-1β release” value (THP-1 cells [1]; oxLDL 50 μg/mL 3 hours) is reported as “reduced” and the “neutralizing the negative charge on the surface of oxHDL” value [2] is reported as “capable of neutralizing the negative charge”. The “affinity for oxHDL” value ([2]; drug screening) was “high affinity”, the oxHDL-induced cholesterol accumulation (THP-1 cells [3]; oxHDL 50 μg/mL 3 hours) was “reduced” and the oxLDL-induced cholesterol accumulation (THP-1 cells [3]; oxLDL 50 μg/mL 3 hours) was “reduced”. For the same compound, the “neutralizing the negative charge on the surface of oxLDL” value [4] was “capable of neutralizing the negative charge”, the “affinity for oxLDL” value ([4]; drug screening) was “high affinity” and the “formation of complexes between oxLDL and NLRP3” value (oxLDL-NLRP3 complexes) was “inhibited the formation of complexes”. For the same compound, the “lipid accumulation in the aortic roots” value [5] was “alleviated lipid accumulation”, the “lipid accumulation in the carotid arteries” value [5] was “alleviated lipid accumulation” and the “lipid accumulation in the livers” value [5] was “alleviated lipid accumulation”. The “formation of complexes between oxHDL and NLRP3” value (oxHDL-NLRP3 complexes) was “inhibited the formation of complexes”.
